Assay results taken from paper PMC8959600 (eLife, 2022).
In brackets after ≈: the same amount, converted by molar mass.

Legend:
E. coli (EcDH5a) = assay: Checkerboard synergy assay (FIC), laboratory isolate; type: cell-based, Escherichia coli
Experimental: Before initiating drug combination assays, the MIC values for both compounds were determined against Shigella (Sf2457T), Salmonella (St14028), and E. coli (EcDH5a) isolates. […] 20 μM moxifloxacin was used as negative control (100% bacterial growth inhibition) in one column and DMSO as positive control (100% bacterial growth). A total of 25 µl of 1 × 10^6 CFU/mL bacterial culture was added to each well of a 384-well plate (μClear; Greiner Bio‐One). Plates were incubated overnight at 37 °C. Next, 10 µl of resazurin were added and plates were incubated at room temperature for 3 hr. Bacterial growth inhibition was measured by fluorescence in a Envision plate reader (PerkinElmer). All assays were performed in duplicate. Combination studies with clinical isolates were performed in 96-well plates (Greiner) adding 200 μl of 1 × 10^6 CFU/mL bacterial culture and following the same checkboard titration method as described above. The range of final working concentrations of each antimicrobial was adjusted based on the MIC of each selected organism.
MICs were determined for drug A and drug B alone and in combination. […] The sum of FIC was expressed using the following equation: FIC = (MIC of drug A in combination / MIC of drug A alone) + (MIC of drug B in combination / MIC of drug B alone) ([Le Minh et al., 2015]; [Petersen et al., 2006]; [Hall et al., 1983]; [European Committee for Antimicrobial Susceptibility Testing (EUCAST) of the European Society of Clinical Microbiology and Infectious Dieases (ESCMID), 2000]).

Shigella flexneri 2457T = assay: Resazurin growth inhibition, dose response (IC50/IC90) in Müller Hinton medium; type: cell-based
Experimental: We developed a high-throughput screening (HTS) method to identify compounds that could inhibit the growth of Shigella flexneri 2457T in Müller Hinton medium (Sigma Aldrich, UK). We adapted a resazurin reduction protocol from Franzblau et al. as surrogate readout for bacterial viability because it provided a stable signal, a low interference level, and was cost effective ([Franzblau et al., 1998]). Prior to the day of experimentation, one colony was used to inoculate 50 mL Mueller Hinton medium, and the culture was incubated overnight at 37 °C. The next day, 500 μL of the bacterial culture were inoculated into 50 mL fresh Mueller Hinton medium and bacterial growth was measured periodically at 600 nm. When the culture reached OD = 0.4–0.6, the inoculum was diluted to 1 × 10^6 CFU/mL; this bacterial suspension was added to compound pre-dispensed plates for screening.
The assay was performed in 1536-well polystyrene assay plates (HiBase, μClear, Greiner Bio‐One) and used to screen ~1.7 million compounds from (a) GSK naïve chemical diversity, (b) GSK antibacterial programs, and (c) marketed antimicrobial agents. All commercially available chemicals were purchased from either Sigma Aldrich, UK, AK Scientific, or Fischer Chemicals. The GSK compound screening set was sub-selected from the 8 million compound GSK collection using the principles described by Harper and co-workers ([Harper et al., 2004]). The process to generate the structural filters to remove compounds bearing undesirable/reactive chemotypes and/or non-developable physicochemical properties has been described previously by [Chakravorty et al., 2018]. […]. The set of marketed antibacterial agents included most commercial antimicrobial agents.
For screening, plates were prepared by dispensing 50 nl of compound from master plates at 1 mM in each well using a LabCyte Echo system. The final assay volume was 5 μl and the final compound concentration was 10 µM. The 11th and 12th columns were growth controls containing 50 nL of DMSO. The 34th and 35th columns contained 50 nL of Moxifloxacin at 20 μM as negative growth controls. Five µl of bacterial inoculum was dispensed into compound pre-dispensed plates using a Multidrop Combi dispenser (Thermo Scientific). Plates were agitated for 10 s to ensure mixing and incubated at 37 °C overnight (16–17 hr). Following overnight culture, 2 µl resazurin solution (Resazurin tablets for milk testing, BDH) was added to each well and incubated at room temperature in the dark for 3 hr. Fluorescence intensity was measured using an Envision plate reader (PerkinElmer). […] Data were analysed using Base software and statistical cut-off analysis was used for ‘hit’ selection following a standard GSK protocol. To calculate the statistical cut-off, percentage growth inhibition was calculated per well according to the plate controls, these values were aggregated to calculate the robust mean and standard deviation (SD) of the distribution. The robust mean was calculated starting from the median and the MAD of the distribution with an iterative process that aimed to remove outliers. Once the mean and SD were calculated, all compounds above mean + 3 SD were selected as primary hits.
After the initial screen, we generated fresh samples of the primary compound hits and tested them in duplicate against S. flexneri 2457T at 10 μM to confirm activity. The confirmed hit list was narrowed by applying the following filters: a 30% cut-off value, absence of undesirable structural features (e.g. electrophiles, peroxides, and Michael acceptors) and reduced physicochemical risk (maximum five aromatic rings and PFI <8)([Leeson and Young, 2015]). […].

[1] = test system: clinical isolates of Shigella; assay: MIC by micro dilution, clinical Shigella isolates from Vietnam and Kenya; type: cell-based, Shigella spp.; details: all clinical isolates of Shigella (82 Vietnam, 53 Kenya)
Description: Selected compounds, including Tebipenem, were profiled against a panel of […] clinical isolates of enteric pathogens comprised of Shigella (Vietnam and Kenya; n = 135), non-typhoidal Salmonella (Vietnam; n = 117), Campylobacter (Vietnam; n = 75), and various pathogenic E. coli species (Vietnam; n = 7) ([Butcher et al., 2014]). The antimicrobial susceptibility profile of these organisms is described in Supplementary file 1.
Compound screening and dose response assays have been described previously ([Van Voorhis et al., 2016]; [Wiegand et al., 2008]). Briefly, the selected bacteria were cultured on the Luria-Bertani agar overnight at 37 °C (Campylobacter isolates were grown in 2.5% Laked Horse Blood cation-adjusted Mueller Hinton medium (CAMHB, Sigma Aldrich) and incubated in microaerophilic conditions (10% CO2, 5% O2 and 85% N2) at 42 °C); colonies were added to sterile PBS to form 0.5 McFarland solutions. […] The activity of the chemical was recorded as being active (yes) or non-active (no) for each of the tested chemicals. A non-active result was recorded when there was no evidence of bacterial inhibition, and the culture area was indistinguishable from the negative control.
MICs were evaluated using the micro dilution assay in Müller Hinton broth using 1 mM chemical stock solutions, and a final concentration of 5 × 10^5 CFU/mL bacteria. […]

[2] = in combination with LpxC inhibitor PF-5081090

**Q.** `C[C@@H](O)[C@H]1C(=O)N2C(C(=O)O)=C(SC3CN(C4=NCCS4)C3)[C@H](C)[C@H]12` [Tebipenem] was tested. Which “interaction (FIC index)” value (E. coli (EcDH5a); [2]) did it give?
**A.** The value was “partial synergy”.

**Q.** And the “reduction of the MIC against Tebipenem” value (E. coli (EcDH5a); [2])?
**A.** The value was greater than 10 fold.

**Q.** What about the “interaction (FIC index)” value (E. coli (EcDH5a); in combination with azithromycin) of the same compound?
**A.** Its value is “indifference or antagonism”.

**Q.** What about the “interaction (FIC index)” value (E. coli (EcDH5a); in combination with ceftriaxone) of the same compound?
**A.** The value was “indifference or partial synergy”.

**Q.** And the “interaction (FIC index)” value (E. coli (EcDH5a); in combination with ciprofloxacin)?
**A.** The value was “indifference or partial synergy”.

**Q.** What about the “interaction (FIC index)” value (E. coli (EcDH5a); in combination with mecillinam) of the same compound?
**A.** The value was “indifference or partial synergy”.

**Q.** What about the MIC (Shigella flexneri 2457T; 2457T, read-out: estimated MIC of S. flexneri 2457T) of the same compound?
**A.** The MIC was 0.39 µM.

**Q.** What about the IC90 (Shigella flexneri 2457T; ATCC700930) of the same compound?
**A.** The IC90 was 0.01 µg/mL (≈ 0.0261 µM).

**Q.** What about the “MIC values, range” value [1] of the same compound?
**A.** The value was 0.04 to 0.3 µM.
